The target in this assay is T1, MALT1 (Homo sapiens, UniProt Q9UDY8).
T1 construct: Avi-tagged FL MALT-1 (Pharmaron, stored at −70° C.); Avi-tag
T1 sequence (Q9UDY8 1-824): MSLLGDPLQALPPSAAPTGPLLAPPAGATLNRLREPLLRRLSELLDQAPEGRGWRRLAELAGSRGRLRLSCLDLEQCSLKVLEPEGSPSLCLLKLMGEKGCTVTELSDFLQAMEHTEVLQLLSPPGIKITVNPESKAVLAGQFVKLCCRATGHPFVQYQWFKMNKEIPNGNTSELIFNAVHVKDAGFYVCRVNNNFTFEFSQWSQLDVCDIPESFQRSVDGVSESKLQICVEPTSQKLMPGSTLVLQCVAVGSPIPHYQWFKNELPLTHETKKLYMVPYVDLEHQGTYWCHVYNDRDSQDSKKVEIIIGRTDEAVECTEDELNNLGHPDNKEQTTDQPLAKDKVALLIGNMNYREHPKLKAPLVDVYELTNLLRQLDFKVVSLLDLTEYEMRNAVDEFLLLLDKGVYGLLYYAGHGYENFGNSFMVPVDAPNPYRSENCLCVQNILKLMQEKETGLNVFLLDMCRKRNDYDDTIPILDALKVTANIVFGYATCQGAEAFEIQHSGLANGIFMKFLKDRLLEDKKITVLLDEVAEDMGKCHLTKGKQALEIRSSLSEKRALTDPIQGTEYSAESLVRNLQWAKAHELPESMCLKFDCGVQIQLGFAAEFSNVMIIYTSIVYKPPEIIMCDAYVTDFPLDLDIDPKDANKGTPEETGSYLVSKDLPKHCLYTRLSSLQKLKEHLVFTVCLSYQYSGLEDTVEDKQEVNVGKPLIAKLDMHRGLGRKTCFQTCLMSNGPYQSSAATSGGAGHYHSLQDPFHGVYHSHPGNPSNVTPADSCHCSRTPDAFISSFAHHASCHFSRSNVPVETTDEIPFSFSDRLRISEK
The assay is described as follows: MALT1 inhibition assay (MALT-1 Fluorogenic Peptide Cleavage Assay, Ac-LRSR-AMC substrate). It counts as biochemical. The note with it: Avi-tagged FL MALT-1, 30 min pre-incubation, 90 min reaction at room temperature, fluorescence intensity. The method, then:
Example 71—MALT1 Inhibition Assay
Compounds were tested for ability to bind to MALT1.
Inhibition of MALT1 activity by the presence of small molecules was evaluated using MALT-1 Fluorogenic Peptide Cleavage Assay. The assay utilizes a quenched AMC-labelled peptide that contains the MALT-1 recognition sequence and cleavage site (LRSR). MALT-1 mediated cleavage of the peptide relieves the quenching and leads to an increase in fluorescence at excitation (342 nm) and emission (441 nm).
The following reagents were obtained commercially and used to prepare standard reagent formulations as further described below: N-2-hydroxyethylpiperazine-N-2-ethane sulfonic acid (HEPES) (1 M, pH 7.5, stored at 4° C.), sodium citrate (stored at RT), tris(2-carboxyethyl) phosphine hydrochloride (T-CEP) (500 mM, stored at −20° C.), ethylenediaminetetraacetic acid (EDTA) (500 mM, stored at RT), dimethylsulfoxide (DMSO, stored at RT), 3-[(3-cholamidopropyl)dimethylammonio]-1-propane sulphate (CHAPS) (stored at RT), dimethylsulfoxide (DMSO), DMSO (Fisher Scientific, stored at RT), Avi-tagged FL MALT-1 (Pharmaron, stored at −70° C.), Ac-LRSR-AMC Peptide (SM Biochemicals, stored at −20° C.), and ultrapure water (MILLI-QR).
The standard reagent formulations used in this assay were prepared and stored as follows. A 1.1 M solution of sodium citrate (161.3 g, 500 mL) was prepared and stored at room temperature. A 10% (w/v) CHAPS solution (2.0 g, 20 mL) was prepared and stored at 4° C. A 500 mM HEPES solution having pH of 6.89 was prepared from 200 mL of a 1 M HEPES solution having a pH of 7.5 using concentrated hydrochloric acid and brought to a final volume of 400 mL with MILLI-QR H2O. The substrate, 10 mM Ac-LRSR-AMC Peptide, was prepared (10 mg, 1.370 mL DMSO) and stored at −20° C.
Compounds were plated to provide a 2% DMSO final concentration using a ProxiPlate-384 Plus F Black 384-shallow well microplate. The assay-ready plates were equilibrated to room temperature. A reaction buffer (30 mL total volume) was prepared by combining HEPES (pH 6.89, 25 mM, 1.5 mL), sodium citrate (660 mM, 18.0 mL), T-CEP (1 mM, 0.06 mL), EDTA ([…], 0.06 mL), CHAPS (0.05%, 0.15 mL), DMSO (2%, 0.6 mL), and MILLI-QR H2O (10.23 mL; 9.63 mL when backfilled to 2% DMSO) followed by thorough mixing. DMSO was added only when compound plates had not been DMSO-backfilled to 2%.
MALT-1 was thawed and kept on ice. Peptide substrate was thawed on the bench under ambient conditions. A MALT-1 enzyme working stock was prepared from Avi-tagged FL MALT-1 (40 nM in a prepared reagent volume of 16.5 μL) and the reaction buffer (13.0 mL). MALT1 working stock (5 μL) was added to each well of the microplate. MALT-1 was pre-incubated with compounds for 30 minutes at room temperature.
Two substrate working stocks (Km and 10×Km) were prepared. The 1×Km substrate was prepared from Ac-LRSR-AMC Peptide (50 μM in a prepared reagent volume of 35.0 μL) and the reaction buffer (6.965 mL). The 10×Km substrate was prepared from Ac-LRSR-AMC Peptide (280 μM in a prepared reagent volume of 196.0 μL) and the reaction buffer (6.804 mL). The reaction was initiated by the addition of substrate working stock (5 μL, 50 μM) to Km plates and the addition of substrate working stock (5 μL 280 μM) to 10×Km plates. The plates were covered and incubated on the bench at room temperature for 90 minutes.
Fluorescence intensity was determined using a CLARIOstar microplate reader (BMG LABTECH) using the optimised AMC mode. Before taking readings, a 70% gain was applied on the neutral control well. Compound data were normalised to % Inhibition and used to plot sigmoidal concentration response curves to yield various parameters including IC50.

SMILES strings stand for the structures.

One may read the IC50 as the point on the concentration scale where inhibition reaches its midpoint. As for `CNc1nc2cccc(-c3nn(C)c(C(=O)Nc4ccnc(C(F)(F)F)c4)c3C(F)(F)F)c2s1` [Compound I-281], the IC50 was in the range of 2500 to 10000 nM. Consider `Cn1nc(-c2cccc3cnccc23)c(C(F)(F)F)c1C(=O)Nc1ccnc(C(F)(F)F)c1` [Compound I-27], for which the IC50 is 500 to 2500 nM. `Cn1nc(-c2cccc3ncc(F)cc23)c(C(F)(F)F)c1C(=O)Nc1ccnc(C(F)(F)F)c1` [Compound I-250] yielded a concentration for half-maximal inhibition (IC50) of 500 to 2500 nM. Compound `Cn1nc(-c2cccc3c2OCO3)c(C(F)(F)F)c1C(=O)Nc1cnc(-n2nccn2)c(C#N)c1` [Compound I-43] showed an IC50 of less than 500 nM. For `Cn1nc(-c2cncc3ncccc23)c(C(F)(F)F)c1C(=O)Nc1ccnc(C(F)(F)F)c1` [Compound I-295] the value was 2500 to 10000 nM.

`Cn1nc(-c2cccc3c2CC(=O)N3)c(C(F)(F)F)c1C(=O)Nc1ccnc(C(F)(F)F)c1` [Compound I-12] had an IC50 of 500 to 2500 nM. In the case of `O=C(Nc1cnc(-n2nccn2)c(Cl)c1)c1nn2c(c1C(F)(F)F)-c1ccccc1CC2` [Compound I-188, N-(5-chloro-6-(2H-1,2,3-triazol-2-yl)pyridin-3-yl)-1-(trifluoromethyl)-5,6-dihydropyrazolo[5,1-a]isoquinoline-2-carboxamide] it was less than 500 nM; in that of `Cn1nc(-c2cncc3nccn23)c(C(F)(F)F)c1C(=O)Nc1ccnc(C(F)(F)F)c1` [Compound I-119], 2500 to 10000 nM. On to `Cn1nc(-c2cccc3c2ccn3CC(=O)O)c(C(F)(F)F)c1C(=O)Nc1ccnc(C(F)(F)F)c1` [Compound I-57], for which the IC50 is more than 10000 nM. As for `Cn1nc(-c2nccc3ccoc23)c(C(F)(F)F)c1C(=O)Nc1ccnc(C(F)(F)F)c1` [Compound I-106], the IC50 was less than 500 nM. In turn, `Cn1nc(-c2cccc(S(C)(=O)=O)c2)c(C(F)(F)F)c1C(=O)Nc1ccnc(C(F)(F)F)c1` [Compound I-82] returned an IC50 of 2500 to 10000 nM. `Cn1nc(-c2cccc3c(N)nccc23)c(C(F)(F)F)c1C(=O)Nc1ccnc(C(F)(F)F)c1` [Compound I-78] gave an IC50 of more than 10000 nM.

In turn, `CN(C)CCn1nc(-c2ccccc2)c(C(F)(F)F)c1C(=O)Nc1cnc(-n2nccn2)c(Cl)c1` [Compound I-171, N-(5-chloro-6-(2H-1,2,3-triazol-2-yl)pyridin-3-yl)-1-(2-(dimethylamino)ethyl)-3-phenyl-4-(trifluoromethyl)-1H-pyrazole-5-carboxamide] showed an IC50 of 500 to 2500 nM.

Turning to `Cn1nc(-c2ccccc2)c(C(F)(F)F)c1C(=O)Nc1ccnc(C2CC2)c1` [Compound I-134], the IC50 is 2500 to 10000 nM. In the case of `Cn1nc(-c2cccc3c2ccn3C)c(C(F)(F)F)c1C(=O)Nc1ccnc(C(F)(F)F)c1` [Compound I-56] it was 500 to 2500 nM; in that of `Cn1nc(C(=O)c2ccccc2)c(C(F)(F)F)c1C(=O)Nc1ccnc(C(F)(F)F)c1` [Compound I-193, 3-benzoyl-1-methyl-4-(trifluoromethyl)-N-(2-(trifluoromethyl)pyridin-4-yl)-1H-pyrazole-5-carboxamide], 500 to 2500 nM. Consider `Cn1nc(-c2cccc3c2CCNC3)c(C(F)(F)F)c1C(=O)Nc1ccnc(C(F)(F)F)c1` [Compound I-197], for which the IC50 was more than 10000 nM. `CCn1nc(-c2ccccc2)c(C(F)(F)F)c1C(=O)Nc1cnc(-n2nccn2)c(Cl)c1` [Compound I-170]: the IC50 is less than 500 nM. In turn, `Cc1cc(-c2nn(C)c(C(=O)Nc3ccnc(C(F)(F)F)c3)c2C(F)(F)F)n2ccnc2c1` [Compound I-228] came in with an IC50 of more than 10000 nM. The compound `COc1ccncc1-c1nn(C)c(C(=O)Nc2ccnc(C(F)(F)F)c2)c1C(F)(F)F` [Compound I-19] came in with an IC50 of 500 to 2500 nM. Compound `Cn1nc(-c2cccc3c(=O)[nH]ccc23)c(C(F)(F)F)c1C(=O)Nc1cnc(-n2nccn2)c(C(F)F)c1` [Compound I-131] returned an IC50 of less than 500 nM. As for `Cn1nc(-c2ccccc2OC2COC2)c(C(F)(F)F)c1C(=O)Nc1ccnc(C(F)(F)F)c1` [Compound I-28], the IC50 fell in the range of 2500 to 10000 nM. In turn, `Cn1nc(-c2cccn3nncc23)c(C(F)(F)F)c1C(=O)Nc1ccnc(C(F)(F)F)c1` [Compound I-233] returned an IC50 of 2500 to 10000 nM. `Cn1nc(-c2ccc(F)cc2Cl)c(C(F)(F)F)c1C(=O)Nc1ccnc(C(F)(F)F)c1` [Compound I-45] returned an IC50 of less than 500 nM. For `Cn1nc(Nc2ccccc2)c(C(F)(F)F)c1C(=O)Nc1cnc(-n2nccn2)c(Cl)c1` [Compound I-86] the value was less than 500 nM.

In the case of `COc1cc(-c2nn(C)c(C(=O)Nc3ccnc(C(F)(F)F)c3)c2C(F)(F)F)c2scnc2c1` [Compound I-104], the IC50 is more than 10000 nM. Turning to `Cn1nc(-c2cccc3ncsc23)c(C(F)(F)F)c1C(=O)Nc1cnc(-n2nccn2)c(Cl)c1` [Compound I-126], the IC50 is less than 500 nM. In turn, `Cn1nc(-c2cccc3c2OCO3)c(C(F)(F)F)c1C(=O)Nc1cnc(-n2nccn2)c(Cl)c1` [Compound I-144] displayed a half-maximal inhibitory concentration (IC50) of less than 500 nM.

The compound `Cn1nc(C(=O)Nc2ccc(C(=O)N3CC(O)C3)c(Cl)c2)cc1-c1ccccc1` [Compound I-155] showed an IC50 of more than 10000 nM.

`Cn1nc(-c2csc3ncccc23)c(C(F)(F)F)c1C(=O)Nc1ccnc(C(F)(F)F)c1` [Compound I-90] came in with an IC50 of 500 to 2500 nM. In the case of `Cn1nc(C2CCNCC2)c(C(F)(F)F)c1C(=O)Nc1ccnc(C(F)(F)F)c1` [Compound I-200] it was more than 10000 nM. The compound `Cn1nc(-c2ccnc3nccn23)c(C(F)(F)F)c1C(=O)Nc1ccnc(C(F)(F)F)c1` [Compound I-247] showed an IC50 of 500 to 2500 nM. In turn, `Cn1nc(-c2c(F)ccc3nccn23)c(C(F)(F)F)c1C(=O)Nc1ccnc(C(F)(F)F)c1` [Compound I-296] displayed an IC50 of 500 to 2500 nM. In the case of `Cn1nc(-c2cncc3ccn(C)c23)c(C(F)(F)F)c1C(=O)Nc1ccnc(C(F)(F)F)c1` [Compound I-114] it was 500 to 2500 nM; in that of `Cn1nc(-c2cccc3ncccc23)c(C(F)(F)F)c1C(=O)Nc1cnc(-n2nccn2)c(C#N)c1` [Compound I-38], 500 to 2500 nM. For `Cn1nc(-c2ccc(F)nc2F)c(C(F)(F)F)c1C(=O)Nc1ccnc(C(F)(F)F)c1` [Compound I-83] the value was 2500 to 10000 nM.

The values are drawn from patent US20260085073A1, “PYRAZOLYLCARBOXAMIDE COMPOUNDS AND THEIR USE IN THERAPY” (Hotspot Therapeutics, Inc., priority 2022, published 2026).
